Drawing on paper PMC8041284, “Tunable Methacrylamides for Covalent Ligand Directed Release Chemistry” (Journal of the American Chemical Society, 2021), this text covers inhibition for 56 compounds.

SMILES strings stand for the structures. Read-outs that look alike come from different tables or passages of the source.

In the test the target is BTK (Homo sapiens, UniProt Q06187). The experiment in a line: biochemical.
[1] abbreviates: read-out: BTK inhibition (%), 0.75 uM BTK, […] probe 3l, 15 min preincubation.

BTK, sequence (Q06187 402-655 limits assumed): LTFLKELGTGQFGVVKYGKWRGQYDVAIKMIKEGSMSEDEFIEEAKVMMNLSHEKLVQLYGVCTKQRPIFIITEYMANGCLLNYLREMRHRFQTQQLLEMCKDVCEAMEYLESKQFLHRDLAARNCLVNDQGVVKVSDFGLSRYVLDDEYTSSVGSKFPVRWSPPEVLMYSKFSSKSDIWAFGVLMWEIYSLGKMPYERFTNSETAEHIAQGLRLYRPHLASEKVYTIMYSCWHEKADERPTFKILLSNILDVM

Consider `CN1[C@@H]2CC[C@H]1CC(OC(c1ccccc1)c1ccccc1)C2` (some centres unmarked) [PCM-0086292], for which, under setting [1], the inhibition at 10 µM was -3.1%.
As for `CCCc1nc2c(C)cc(-c3nc4ccccc4n3C)cc2n1Cc1ccc(-c2ccccc2C(=O)O)cc1` [PCM-0086294], the inhibition at 10 µM under setting [1] was -10.9%.
On the same count and under the same terms, then `c1ccc(-c2ccc(C(c3ccccc3)n3ccnc3)cc2)cc1` (centres unmarked) [PCM-0086296], with 33.5%; and `COC(=O)C1=C(C)NC(C)=C(C(=O)OC(C)C)C1c1cccc2nonc12` (centres unmarked) [PCM-0086297], with -2.3%.
Consider `N#Cc1ccc(C(c2ccc(C#N)cc2)n2cncn2)cc1` [PCM-0086304], for which the inhibition at 10 µM under setting [1] is -2.1%.
In the case of `OC[C@H]1O[C@@H](Oc2ccc(O)cc2)[C@H](O)[C@@H](O)[C@@H]1O` [PCM-0086306], the inhibition at 10 µM under setting [1] was -6.2%.
The same measure, in the same setting: then `CCOC(=O)[C@H](CCc1ccccc1)N[C@@H](C)C(=O)N1[C@H](C(=O)O)C[C@@H]2CCC[C@@H]21` [PCM-0086308], with -3.9%.
The same measure, in the same setting: then `Cc1nc2n(c(=O)c1CCN1CCC(c3noc4cc(F)ccc34)CC1)CCCC2` [PCM-0086311], with 1.7%; and `Cc1cccc(Nc2ccncc2S(=O)(=O)NC(=O)NC(C)C)c1` [PCM-0086313], with -4.3%.
Same read-out and setting: then `COc1c(N2CCNC(C)C2)c(F)cc2c(=O)c(C(=O)O)cn(C3CC3)c12` (centres unmarked) [PCM-0086315], with -40.5%; and `COc1ccccc1Oc1c(NS(=O)(=O)c2ccc(C(C)(C)C)cc2)nc(-c2ncccn2)nc1OCCO` [PCM-0086316], with -7.8%.
Regarding `CCCc1nc(C(C)(C)O)c(C(=O)OCc2oc(=O)oc2C)n1Cc1ccc(-c2ccccc2-c2nn[nH]n2)cc1` [PCM-0086318], under setting [1], the inhibition at 10 µM worked out at 0.8%.
With `CC(C)Cn1cnc2c(N)nc3ccccc3c21` [PCM-0086321], the inhibition at 10 µM under setting [1] was -2.6%.
Take `CCCNC(C)C(=O)Nc1c(C)csc1C(=O)OC` (centres unmarked) [PCM-0086324]: the inhibition at 10 µM under setting [1] is -13.2%.
The same measure, in the same setting: then `CNNCc1ccc(C(=O)NC(C)C)cc1` [PCM-0086325], with -17.9%; and `Cn1c([N+](=O)[O-])cnc1COC(N)=O` [PCM-0086329], with -12.5%; and `CCN[C@H]1C[C@H](C)S(=O)(=O)c2sc(S(N)(=O)=O)cc21` [PCM-0086331], with 10.2%.
Still for that read-out and setting: then `CC1CCc2c(N3CCC(O)CC3)c(F)cc3c(=O)c(C(=O)O)cn1c23` (centres unmarked) [PCM-0086338], with 1.6%; and `COc1ccc(C[C@@H](C)NC[C@H](O)c2ccc(O)c(NC=O)c2)cc1` [PCM-0086341], with 7%.
On the same count and under the same terms, then `COc1cc2ncnc(Nc3ccc(F)c(Cl)c3)c2cc1OCCCN1CCOCC1` [PCM-0086349], with 2.1%; and `O=C(NC(Cc1cc(=O)[nH]c2ccccc12)C(=O)O)c1ccc(Cl)cc1` (centres unmarked) [PCM-0086359], with 4.7%; and `COC(=O)C1=C(C#N)NC(C)=C(C(=O)OC(C)C)C1c1cccc([N+](=O)[O-])c1` (centres unmarked) [PCM-0086361], with 14.8%.
With `Nc1ccc(S(N)(=O)=O)cc1` [PCM-0086364], the inhibition at 10 µM under setting [1] was -9.3%.
In the case of `O=C(O)c1cccnc1` [PCM-0086368], under setting [1], the inhibition at 10 µM was found to be 3.1%.
Same read-out and setting: then `CNC[C@H](O)[C@@H](O)[C@H](O)[C@H](O)CO` [PCM-0086373], with -10.1%.
On to `NS(=O)(=O)c1cc(Cl)c(Cl)c(S(N)(=O)=O)c1` [PCM-0086380], for which the inhibition at 10 µM under setting [1] was -4.7%.
`CCC1=C(C)CN(C(=O)NCCc2ccc(S(=O)(=O)NC(=O)NC3CCC(C)CC3)cc2)C1=O` (centres unmarked) [PCM-0086384]: the inhibition at 10 µM under setting [1] amounted to 8.6%.
On the same count and under the same terms, then `Nc1nc2c(c(=O)[nH]1)N(C=O)C(CNc1ccc(C(=O)N[C@@H](CCC(=O)O)C(=O)O)cc1)CN2` (some centres unmarked) [PCM-0086396], with -17.9%; and `O=C(O)c1cc(=O)c2c(OCC(O)COc3cccc4oc(C(=O)O)cc(=O)c34)cccc2o1` [PCM-0086401], with 2.6%.
Same read-out and setting: then `COC(=O)Nc1nc2ccc(C(=O)c3ccc(F)cc3)cc2[nH]1` [PCM-0086402], with -3.4%.
On the same count and under the same terms, the same measure for `Nc1ccc(C(=O)NCC(=O)O)cc1` [PCM-0086407]: 28%; for `CC(C(=O)O)c1ccc(C(=O)c2cccs2)cc1` (centres unmarked) [PCM-0086408]: -1.4%.
For `CC(=O)OCC(=O)[C@@]12N=C(C)O[C@@H]1C[C@H]1[C@@H]3CCC4=CC(=O)C=C[C@]4(C)[C@H]3[C@@H](O)C[C@@]12C` [PCM-0086410], under setting [1], the inhibition at 10 µM was -7.6%.
In the case of `Cc1nnc(NS(=O)(=O)c2ccc(N)cc2)s1` [PCM-0086420], the inhibition at 10 µM under setting [1] is -10.9%.
The same measure, in the same setting: then `CC(c1cc2ccccc2s1)N(O)C(N)=O` (centres unmarked) [PCM-0086421], with -0.7%; and `Cc1c(Nc2ncccc2C(=O)O)cccc1C(F)(F)F` [PCM-0086423], with -9%; and `COC(=O)C1=C(C)NC(C)=C(C(=O)OCC(C)C)C1c1ccccc1[N+](=O)[O-]` (centres unmarked) [PCM-0086426], with 31.1%.
On to `COc1cc(C)c(/C=C/C(C)=C/C=C/C(C)=C/C(=O)O)c(C)c1C` [PCM-0086430], for which, under setting [1], the inhibition at 10 µM stood at 10.9%.
Consider `Nc1nc(N)nc(-c2cc(Cl)ccc2Cl)n1` [PCM-0086432], for which, under setting [1], the inhibition at 10 µM stood at 4.3%.
The same measure, in the same setting: then `Nc1nc(NC2CC2)c2ncn([C@H]3C=C[C@@H](CO)C3)c2n1` [PCM-0086436], with 9.4%; and `NS(=O)(=O)c1cc2c(cc1Cl)NC(C(Cl)Cl)NS2(=O)=O` (centres unmarked) [PCM-0086441], with -14%.
Take `COc1ccc2cc(CCC(C)=O)ccc2c1` [PCM-0086446]: the inhibition at 10 µM under setting [1] was 7.6%.
Same read-out and setting: the same measure for `CC/C(=C(/CC)c1ccc(O)cc1)c1ccc(O)cc1` [PCM-0086456]: -26.5%; for `Oc1ccc(OCc2ccccc2)cc1` [PCM-0086466]: 8.6%.
In the case of `O=P1(NCCCl)OCCCN1CCCl` (centres unmarked) [PCM-0086467], for the setting “read-out: BTK inhibition (%)”, the inhibition at 10 µM is -10.3%.
For the compound `CO[C@@H]1[C@@H](OC(N)=O)[C@@H](O)[C@H](Oc2ccc3c(O)c(NC(=O)c4ccc(O)c(CC=C(C)C)c4)c(=O)oc3c2C)OC1(C)C` [PCM-0086469], the inhibition at 10 µM under setting [1] came out at 7%.
The same measure, in the same setting: then `CC(C(=O)O)c1ccc2c(c1)Cc1cccnc1O2` (centres unmarked) [PCM-0086477], with -11.7%; and `Cc1ncc([N+](=O)[O-])n1CC(C)O` (centres unmarked) [PCM-0086479], with -3.9%; and `Nc1ccc(S(=O)(=O)Nc2ccccn2)cc1` [PCM-0086480], with -13.6%.
Still for that read-out and setting: then `CCCCCCCN(CC)CCCC(O)c1ccc(NS(C)(=O)=O)cc1` (centres unmarked) [PCM-0086483], with -17.1%; and `CCS(=O)(=O)CCn1c([N+](=O)[O-])cnc1C` [PCM-0086486], with -4.7%; and `CCCC[N+]1(C)[C@@H]2CC(OC(=O)[C@H](CO)c3ccccc3)C[C@H]1[C@@H]1O[C@@H]12` (some centres unmarked) [PCM-0086491], with -17.9%.
In the case of `COc1cnc(NS(=O)(=O)c2ccc(N)cc2)nc1` [PCM-0086492], under setting [1], the inhibition at 10 µM was 5.4%.
Still for that read-out and setting: then `CCc1c2c(nc3ccc(OC(=O)N4CCC(N5CCCCC5)CC4)cc13)-c1cc3c(c(=O)n1C2)COC(=O)[C@]3(O)CC` [PCM-0086493], with 6.9%.
On the same count and under the same terms, the same measure for `CNC(=C[N+](=O)[O-])NCCSCc1csc(CN(C)C)n1` [PCM-0086495]: 2.1%; for `CCOC(=O)[C@H](CCc1ccccc1)N[C@@H](C)C(=O)N1Cc2ccccc2C[C@H]1C(=O)O` [PCM-0086504]: -16.3%.
